In publication PMC9948199 (ACS Omega, 2023):
Blank lines part the entries; values can stand above or below the molecule they belong to.

Experiments:
[1] = Blood, tumor and tissue concentration after last dose in the tumor model; format: in vivo, Balb/c nude mice; conditions: for concentration at 2 h / concentration at 8 h: female, Balb/c nude (Nu/Nu), mouse, ip; for concentration at 2 h / concentration at 8 h / concentration of MRTX1133 in kidney: 10 mg/kg; for concentration of MRTX1133 in heart / concentration of MRTX1133 in intestine / concentration of MRTX1133 in liver / concentration of MRTX1133 in lung / concentration of MRTX1133 in spleen / concentration of MRTX1133 in stomach / concentration of MRTX1133 in tumor / concentration of MRTX1133 in kidney: from MRTX1133 IP 10 mpk
[2] = Tolerability and body weight in mice; format: in vivo; conditions: oral, 300 mpk
[3] = tested on: AsPC-1 (pancreatic cancer cell line bearing the KRAS^G12D mutation) xenograft; assay: AsPC-1 xenograft tumor mouse model efficacy; format: in vivo, Balb/c nude mice; conditions: 16 days
[4] = Stability in mouse liver microsomes; format: in vitro ADME; conditions: pH 7.4
Pharmacokinetics in mice = format: in vivo; conditions: intravenous, 3 mpk
[5] = Caco-2 permeability assay; format: in vitro ADME; conditions: human, Table 1
[6] = following IP administration of MRTX1133 (10 mpk), time not given

Structure (SMILES): C#Cc1c(F)ccc2cc(O)cc(-c3ncc4c(N5C[C@H]6CC[C@@H](C5)N6C(=O)OC(C)OC(=O)CCC)nc(OC[C@@]56CCCN5C[C@H](F)C6)nc4c3F)c12 (stereo partly drawn) [Compound 9, 1-(Butyryloxy)ethyl (1R,5S)-3-(7-(8-ethynyl-7-fluoro-3-hydroxynaphthalen-1-yl)-8-fluoro-2-(((2R,7aS)-2-fluorotetrahydro-1H-pyrrolizin-7a(5H)-yl)methoxy)pyrido[4,3-d]pyrimidin-4-yl)-3,8-diazabicyclo[3.2.1]octane-8-carboxylate]
blood concentration of the named Cpd ([1]; 8 h post last oral dose of prodrug 9 (high dose, 126 mpk bid) in the tumor model): BLQ | tolerability in mice ([2]; conventional vehicle): intolerable | tolerability in mice ([2]; lipid-based formulation): well-tolerated | tumor growth inhibition (TGI) ([3]; high dose 126 mpk (equimolar to 100 mpk MRTX1133) p.o. bid): 54% | tumor growth inhibition (TGI) ([3]; low dose 37.8 mpk (equimolar to 30 mpk MRTX1133) p.o. bid): 20%

CLint scaled at 1 μM [4]: 143 mL/min/kg | half-life at 1 μM [4]: 38.5 min | concentration at 2 h ([1]; brain): 131 ng/g | concentration at 8 h ([1]; brain): 139 ng/g | concentration at 2 h ([1]; whole blood): 654 ng/mL | concentration at 8 h ([1]; whole blood): 330 ng/mL | concentration of MRTX1133 in the liver, spleen, and lung [1, 6]: ~60 000 ng/g | concentration of MRTX1133 in the stomach, intestine, and heart [1, 6]: ~20 000 ng/g | concentration of MRTX1133 in heart ([1]; 2 h post last dose): 18 330 ng/g | concentration of MRTX1133 in intestine ([1]; 2 h post last dose): 24 388 ng/g | concentration of MRTX1133 in liver ([1]; 2 h post last dose): 63 525 ng/g | concentration of MRTX1133 in lung ([1]; 2 h post last dose): 53 040 ng/g | concentration of MRTX1133 in spleen ([1]; 2 h post last dose): 58400 ng/g | concentration of MRTX1133 in stomach ([1]; 2 h post last dose): 26 325 ng/g | concentration of MRTX1133 in tumor ([1]; 2 h post last dose): 11 870 ng/g | concentration of MRTX1133 in kidney ([1]; 2 h post last dose): 285 150 ng/g | concentration of MRTX1133 in heart ([1]; 8 h post last dose): 15 795 ng/g | concentration of MRTX1133 in intestine ([1]; 8 h post last dose): 18 213 ng/g | concentration of MRTX1133 in liver ([1]; 8 h post last dose): 62 950 ng/g | concentration of MRTX1133 in lung ([1]; 8 h post last dose): 57 300 ng/g | concentration of MRTX1133 in spleen ([1]; 8 h post last dose): 54000 ng/g | concentration of MRTX1133 in stomach ([1]; 8 h post last dose): 27 775 ng/g | concentration of MRTX1133 in tumor ([1]; 8 h post last dose): 14 300 ng/g | concentration of MRTX1133 in kidney ([1]; 8 h post last dose): 333 900 ng/g | AUC0–24 h of MRTX1133 (Pharmacokinetics in mice): 2253 ng·h/mL | Papp A→B ([5]; Caco-2, Caco-2 permeability Papp A – B): < 0.48 ×10⁻⁶ cm/s | Papp B→A ([5]; Caco-2, Caco-2 permeability Papp B – A): 8.05 ×10⁻⁶ cm/s | efflux ratio ([5]; Caco-2, Caco-2 permeability efflux ratio): > 16.8
Structure (SMILES): C#Cc1c(F)ccc2cc(O)cc(-c3ncc4c(N5CC6CCC(C5)N6)nc(OC[C@@]56CCCN5C[C@H](F)C6)nc4c3F)c12 [MRTX1133]
antitumor effect ([3]; 100 mpk p.o. bid): no apparent antitumor effect
